For test [1], the target named is T1, Beta-1 adrenergic receptor (Cavia porcellus, UniProt B0FL73). Kind of test: Activity at beta-1 adrenergic receptor. The settings on record: read-out: pA2 (converted).
The target in test [2] is T1, Beta-1 adrenergic receptor. Kind of test: Compound was tested for the biological activity at the Beta-1 adrenergic receptor. To be noted: read-out: pA2 (converted).

SMILES strings stand for the structures.

The record followed here is ChEMBL document CHEMBL1125549, “Computer-aided mapping of the beta-adrenoceptor. 1. Explanation for effect of para substitution on blocking activity at the beta-1-adrenoceptor” (J Med Chem, 1992).

T1 sequence (B0FL73 whole entry): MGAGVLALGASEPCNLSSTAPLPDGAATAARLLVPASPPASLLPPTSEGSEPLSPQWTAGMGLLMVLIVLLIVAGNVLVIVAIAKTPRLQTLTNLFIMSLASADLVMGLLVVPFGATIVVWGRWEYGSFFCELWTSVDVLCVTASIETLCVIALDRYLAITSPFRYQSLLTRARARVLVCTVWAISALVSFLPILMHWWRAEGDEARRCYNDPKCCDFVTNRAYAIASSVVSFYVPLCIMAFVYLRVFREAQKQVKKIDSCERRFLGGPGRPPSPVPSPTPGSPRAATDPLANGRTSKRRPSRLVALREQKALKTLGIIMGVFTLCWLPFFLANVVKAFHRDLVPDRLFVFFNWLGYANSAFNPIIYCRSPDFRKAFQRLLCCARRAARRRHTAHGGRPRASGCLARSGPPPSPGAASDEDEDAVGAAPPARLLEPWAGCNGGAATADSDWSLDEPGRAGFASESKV

Turning to `CC(C)NCC(O)COc1ccc(-c2nc(-c3cccs3)c[nH]2)cc1` (stereo not given), the Kb in test [1] is 1.26 nM.
As to `COCCOc1ccc(OCC(O)CNC(C)C)cc1` (stereo not given), in test [2], the Kb is 398 nM.
On to `CCc1ccc(OCC(O)CNC(C)C)cc1` (stereo not given), for which the Kb in test [1] is 63.1 nM.
Same read-out and setting: the result for `CC(C)NCC(O)COc1ccc(-c2ncc[nH]2)cc1` (stereo not given) reads 25.1 nM; that for `CC(C)NCC(O)COc1ccc(OCCOCCc2ccc(F)cc2)cc1` (stereo not given), 6.31 nM.
